Assay results from patent US11684616B2, “Azalactam compounds as HPK1 inhibitors” (PFIZER INC., priority 2020, dated 2023).

Target: human full-length autophosphorylated recombinant HPK1 (Homo sapiens (Human), UniProt Q92918)
Assay: HPK1 biochemical enzyme assay (chelation-enhanced fluorescence, CHEF)
Settings: 0.5 nM HPK1, 45 μM ATP, Morrison fit
Description: HPK1 Biochemical Enzyme Assay
HPK1 enzyme inhibition was measured by using the fluorescence-based chelation-enhanced fluorescence (CHEF) method (1), and by using a proprietary fluorescent peptide substrate, in which a cysteine residue is alkylated with a sulfonamido-oxine-based derivative to afford an amino acid termed C-Sox (CSx). […] Initial reaction velocities were determined by following the peptide fluorescence (λex=360 nm, λem=500 nm) at 30° C. for 15 min in a Tecan M1000 plate reader (Tecan Group Ltd., Mannedorf, Zurich, Switzerland).
Production of Autophosphorylated Full-Length Recombinant HPK1
The DNA sequence encoding full-length human HPK1 (Genbank NM_001042600.2) was synthesized at GenScript and contained a limited number of silent base changes to eliminate certain restriction endonuclease enzyme recognition sites, and fused to a DNA sequence encoding a Tobacco Etch Virus (TEV)-cleavable N-terminal polyhistidine purification tag. A recombinant baculovirus was prepared by using the Bac-to-Bac method (InVitrogen) and was used to infect 9 L of Sf21 insect cells. All purification steps were carried out at 4° C. Cells containing recombinant HPK1 were lysed in 50 mM HEPES-NaOH, pH 7.5, 250 mM NaCl, 1 mM tris(2-carboxyethyl)phosphine (TCEP), 10 μM leupeptin (Sigma), 10 μM E-64 (Sigma), and one ‘EDTA-free’ protease inhibitor tablet (Roche) per 75 mL buffer, centrifuged at 15,000×g for 1 h and the supernatant passed over 5 mL of ProBond IMAC resin (InVitrogen). After washing, HPK1 was eluted with 12.5 mL of 50 mM HEPES-NaOH, pH 7.5, 400 mM NaCl, 250 mM imidazole-HCl pH 7.5, 1 mM TCEP, 2 μM leupeptin, and 2 μM E-64. The eluted HPK1 was dialyzed overnight against 0.8 L of 50 mM HEPES-NaOH, pH 7.5, 400 mM NaCl, 20 mM imidazole-HCl pH 7.5, 1 mM TCEP, 2 μM leupeptin, 2 μM E-64, 2 mM ATP-NaOH pH 7.3, 5 mM MgCl2 and 1 mg TEV (this step simultaneously allows for reduction of the imidazole concentration in preparation for the subsequent reverse IMAC chromatography step, removal of the polyhistidine purification tag by TEV protease, and autophosphorylation of HPK1 in the presence of MgATP). The de-tagged and autophosphorylated HPK1 was adjusted to 40 mM imidazole-HCl, pH 7.5, and passed through a 10 mL column of ProBond resin similarly equilibrated. […] The peak fractions containing HPK1 were pooled and concentrated to approximately 2.5 mL by using a centrifugal concentrator (Millipore). The concentrated HPK1 was adjusted to 20% (v/v) glycerol by the addition of 50% (v/v) glycerol, resulting in a final formulation of 25 mM HEPES-NaOH pH 7.5, 250 mM NaCl, 0.25 mM TCEP and 20% (v/v) glycerol. […] Aliquots of the enzyme were flash frozen in liquid nitrogen and stored at −80° C. The final product contains a glycine-serine extension at the N-terminus of the full-length protein, as a result of the cloning strategy.

human full-length autophosphorylated recombinant HPK1, sequence (Q92918 other isoform, or with tags, fused parts or gaps): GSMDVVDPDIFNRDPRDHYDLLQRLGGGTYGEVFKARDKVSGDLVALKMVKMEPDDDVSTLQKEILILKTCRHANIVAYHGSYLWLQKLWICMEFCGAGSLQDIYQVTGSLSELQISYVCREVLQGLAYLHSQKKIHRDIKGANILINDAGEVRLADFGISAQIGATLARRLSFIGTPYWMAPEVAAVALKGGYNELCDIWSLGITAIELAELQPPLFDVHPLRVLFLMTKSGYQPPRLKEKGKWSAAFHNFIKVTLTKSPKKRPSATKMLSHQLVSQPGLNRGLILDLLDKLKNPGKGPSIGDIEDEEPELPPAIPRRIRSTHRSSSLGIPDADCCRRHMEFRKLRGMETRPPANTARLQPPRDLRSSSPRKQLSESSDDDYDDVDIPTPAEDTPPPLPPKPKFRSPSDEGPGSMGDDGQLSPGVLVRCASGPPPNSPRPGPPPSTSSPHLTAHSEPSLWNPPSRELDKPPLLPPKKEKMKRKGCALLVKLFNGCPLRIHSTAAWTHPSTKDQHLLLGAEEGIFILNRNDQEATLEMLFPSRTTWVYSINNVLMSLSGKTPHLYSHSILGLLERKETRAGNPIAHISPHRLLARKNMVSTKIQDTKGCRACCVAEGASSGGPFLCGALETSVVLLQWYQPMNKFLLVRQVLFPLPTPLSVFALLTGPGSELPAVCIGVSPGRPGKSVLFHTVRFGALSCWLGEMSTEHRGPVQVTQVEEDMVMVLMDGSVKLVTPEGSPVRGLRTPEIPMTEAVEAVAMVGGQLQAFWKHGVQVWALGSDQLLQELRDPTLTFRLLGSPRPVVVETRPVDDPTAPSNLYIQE

Row | Ki | SMILES
1 | 3.14 nM | CC[C@@H](N)c1nc(N(C)C)cc2c1CN(c1cccc(-c3nncn3CC)n1)C2=O (stereo in doubt) [Example 146, 4-[(1ξ)-1-aminopropyl]-6-(dimethyl-amino)-2-[6-(4-ethyl-4H-1,2,4-triazol-3-yl)pyridin-2-yl]-2,3-dihydro-1H-pyrrolo[3,4-c]pyridin-1-one]
2 | 1.29 nM | CC[C@@H]1CCc2nnc(-c3cccc(N4Cc5c(cc(N(C)C(C)C)nc5CNC)C4=O)n3)n21 [Example 204, 2-{6-[(5R)-5-ethyl-6,7-dihydro-5H-pyrrolo[2,1-c] [1,2,4]triazol-3-yl]pyridin-2-yl}-4-[(methyl-amino)methyl]-6-[methyl (propan-2-yl)amino]-2,3-dihydro-1H-pyrrolo[3,4-c] pyridin-1-one]
3 | 1.78 nM | CCC(CC)n1cnnc1-c1cccc(N2Cc3c(cc(C4(C)CC4)nc3[C@@H](C)N)C2=O)n1 (stereo in doubt) [Example 126, 4-[(1ξ)-1-aminoethyl]-6-(1-methyl-cyclopropyl)-2-{6-[4-(pentan-3-yl)-4H-1,2,4-triazol-3-yl]pyridin-2-yl}-2,3-dihydro-1H-pyrrolo[3,4-c]pyridin-1-one]
4 | 1 nM | CC[C@H](N)c1nc(N(C)C)cc2c1CN(c1cccc(-c3nncn3CC)n1)C2=O (stereo in doubt) [Example 147, 4-[(1ξ)-1-aminopropyl]-6-(dimethyl-amino)-2-[6-(4-ethyl-4H-1,2,4-triazol-3-yl)pyridin-2-yl]-2,3-dihydro-1H-pyrrolo[3,4-c]pyridin-1-one]
5 | 1.41 nM | CCN(C)c1cc2c(c([C@@H](C)N)n1)CN(c1cccc(-c3nnc(C)n3CC)n1)C2=O (stereo in doubt) [Example 127, 4-[(1ξ)-1-aminoethyl]-6-[ethyl(methyl)amino]-2-[6-(4-ethyl-5-methyl-4H-1,2,4-triazol-3-yl)pyridin-2-yl]-2,3-dihydro-1H-pyrrolo[3,4-c]pyridin-1-one]
6 | 1.42 nM | CCC(CC)n1cnnc1-c1cccc(N2Cc3c(cc(C4(C)CC4)nc3[C@H](C)N)C2=O)n1 (stereo in doubt) [Example 125, 4-[(1ξ)-1-aminoethyl]-6-(1-methyl-cyclopropyl)-2-{6-[4-(pentan-3-yl)-4H-1,2,4-triazol-3-yl]pyridin-2-yl}-2,3-dihydro-1H-pyrrolo[3,4-c]pyridin-1-one]
7 | 1.76 nM | C[C@@H]1CCCN1c1cc2c(c([C@@H](C)N)n1)CN(c1cccc(-c3nnc4n3[C@@H](C)CC4)n1)C2=O [Example 24, 4-[(1ξ)-1-aminoethyl]-2-{6-[(5ξ)-5-methyl-6,7-dihydro-5H-pyrrolo[2,1-c][1,2,4]triazol-3-yl]pyridin-2-yl}-6-[(2R)-2-methylpyrroli-din-1-yl]-2,3-dihydro-1H-pyrrolo[3,4-c]pyridin-1-one]
8 | 0.46 nM | CCCn1cnnc1-c1cccc(N2Cc3c(cc(N4CCC[C@H]4C)nc3[C@@H](N)CC)C2=O)n1 [Example 145, 4-[(1S)-1-aminopropyl]-6-[(2R)-2-methylpyrroli-din-1-yl]-2-[6-(4-propyl-4H-1,2,4-triazol-3-yl)pyridin-2-yl]-2,3-dihydro-1H-pyrrolo[3,4-c]pyridin-1-one]
9 | 2.11 nM | CNCc1nc(N(C)C)cc2c1CN(c1cccc(-c3nnc4n3[C@H](C)CC4)n1)C2=O [Example 209, 6-(dimethyl-amino)-4-[(methylamino)methyl]-2-{6-[(5R)-5-methyl-6,7-dihydro-5H-pyrrolo[2,1-c] [1,2,4]triazol-3-yl]pyridin-2-yl}-2,3-dihydro-1H-pyrrolo[3,4-c] pyridin-1-one]
10 | 1.25 nM | CCn1cnnc1-c1cccc(N2Cc3c(cc(N(C)C)nc3[C@@H](C)N)C2=O)n1 (stereo in doubt) [Example 153, 4-[(1ξ)-1-aminoethyl]-6-(dimethyl-amino)-2-[6-(4-ethyl-4H-1,2,4-triazol-3-yl)pyridin-2-yl]-2,3-dihydro-1H-pyrrolo[3,4-c]pyridin-1-one]
11 | 8.47 nM | CC[C@H]1CCc2nnc(-c3cccc(N4Cc5c(cc(N6CCC[C@H]6C)nc5[C@@H](N)CC)C4=O)n3)n21 [Example 15, 4-[(1S)-1-aminopropyl]-2-{6-[(5ξ)-5-ethyl-6,7-dihydro-5H-pyrrolo[2,1-c][1,2,4]triazol-3-yl]pyridin-2-yl}-6-[(2R)-2-methylpyrroli-din-1-yl]-2,3-dihydro-1H-pyrrolo[3,4-c]pyridin-1-one]
12 | 1.98 nM | CC[C@@H]1CCc2nnc(-c3cccc(N4Cc5c(cc(N(C)C(C)C)nc5[C@@H](C)N)C4=O)n3)n21 [Example 12, 4-[(1R)-1-aminoethyl]-2-{6-[(5R)-5-ethyl-6,7-dihydro-5H-pyrrolo[2,1-c][1,2,4]triazol-3-yl]pyridin-2-yl}-6-[methyl(propan-2-yl)amino]-2,3-dihydro-1H-pyrrolo[3,4-c]pyridin-1-one]
13 | 2.68 nM | CC[C@@H]1CCc2nnc(-c3cccc(N4Cc5c(cc(N(C)C)nc5CNC)C4=O)n3)n21 [Example 207, 6-(dimethyl-amino)-2-{6-[(5R)-5-ethyl-6,7-dihydro-5H-pyrrolo[2,1-c] [1,2,4]triazol-3-yl]pyridin-2-yl}-4-[(methyl-amino)methyl]-2,3-dihydro-1H-pyrrolo[3,4-c] pyridin-1-one]
14 | 0.15 nM | C[C@H](N)c1nc(N2CCC[C@H]2C)cc2c1CN(c1cccc(-c3nnc4n3[C@@H](CF)CC4)n1)C2=O [Example 19, 4-[(1ξ)-1-aminoethyl]-2-{6-[(5R)-5-(fluoromethyl)-6,7-dihydro-5H-pyrrolo[2,1-c][1,2,4]triazol-3-yl]pyridin-2-yl}-6-[(2R)-2-methylpyrroli-din-1-yl]-2,3-dihydro-1H-pyrrolo[3,4-c]pyridin-1-one]
15 | 1.38 nM | C[C@@H](N)c1nc(C2(C)CC2)cc2c1CN(c1cccc(-c3nncn3C3CCC3)n1)C2=O (stereo in doubt) [Example 103, 4-[(1ξ)-1-aminoethyl]-2-[6-(4-cyclobutyl-4H-1,2,4-triazol-3-yl)pyridin-2-yl]-6-(1-methylcyclo-propyl)-2,3-dihydro-1H-pyrrolo[3,4-c]pyridin-1-one]
16 | 2.01 nM | CC[C@@H](N)c1nc(C2(C)CC2)cc2c1CN(c1cccc(-c3nncn3C3CCC3)n1)C2=O (stereo in doubt) [Example 105, 4-[(1ξ)-1-aminopropyl]-2-[6-(4-cyclobutyl-4H-1,2,4-triazol-3-yl)pyridin-2-yl]-6-(1-methylcyclo-propyl)-2,3-dihydro-1H-pyrrolo[3,4-c]pyridin-1-one]
17 | 3.73 nM | CCCn1cnnc1-c1cccc(N2Cc3c(cc(N(C)C)nc3[C@@H](N)CC)C2=O)n1 [Example 143, 4-[(1ξ)-1-aminopropyl]-6-(dimethyl-amino)-2-[6-(4-propyl-4I-1,2,4-triazol-3-yl)pyridin-2-yl]-2,3-dihydro-1I-pyrrolo[3,4-c]pyridin-1-one]
18 | 5.6 nM | CC[C@@H]1CCc2nnc(-c3cccc(N4Cc5c(cc(N6CCC[C@H]6C)nc5[C@H](C)N)C4=O)n3)n21 [Example 8, 4-[(1S)-1-aminoethyl]-2-{6-[(5R)-5-ethyl-6,7-dihydro-5H-pyrrolo[2,1-c][1,2,4]triazol-3-yl]pyridin-2-yl}-6-[(2R)-2-methylpyrroli-din-1-yl]-2,3-dihydro-1H-pyrrolo[3,4-c]pyridin-1-one]
